# In US20210403485A1, “PYRAZOLOPYRIMIDINE DERIVATIVE AS SELECTIVE TRK INHIBITOR” (SHANDONG LUYE PHARMACEUTICAL CO., LTD., priority 2018, published 2021):
# Tests used:
# [1] = test system: Ba/F3 ETV6-NTRK3-G623R cells; assay: Efficacy test in animals: subcutaneous xenograft, intragastric administration; type: in vivo, nude mice; settings: for TGI (tumor growth inhibition rate): day of dissection; for Tumor inhibition rate (by tumor weight) / Tumor weight: end of the test
# Description: Cells in the logarithmic growth phase were collected and resuspended in serum-free medium to a cell concentration of 2-4×10^7 cells/mL. An equal volume of matrigel was added to the cell suspension to achieve a final cell concentration of 1-2×10^7 cells/mL. 0.2 mL of tumor cell suspension was subcutaneously inoculated at the scapula of each nude mouse with the inoculation amount of 2-4×10^6 cells/mouse to prepare the animal models.
# [2] = Animal body weight and general observations, Ba/F3 ETV6-NTRK3 tumor-bearing nude mice
# Description: (§1) The mice in groups were intragastrically administrated on the next day, and the animal body weight and the long and short diameters of the tumor were measured once every other day.
# [3] = Animal body weight and general observations, Ba/F3 ETV6-NTRK3-G623R tumor-bearing nude mice
# Description: as §1
compound,measurement,setting,value
"O=C1NC2(CC2)COc2ncc(F)cc2C2COCCN2c2ccn3ncc1c3n2 (single isomer, unassigned) [WX001B]",Relative tumor proliferation rate T/C,"[1]; Day 7, 2.5 mg/kg bid",36.00%
same,Tumor volume,"[1]; Day 7, 2.5 mg/kg bid",689.34 ± 174.38 mm^3
same,Relative tumor proliferation rate T/C,"[1]; Day 7, 5 mg/kg bid",29.86%
same,Tumor volume,"[1]; Day 7, 5 mg/kg bid",571.74 ± 105.62 mm^3
same,Relative tumor proliferation rate T/C,"[1]; Day 7, 10 mg/kg bid",15.44%
same,Tumor volume,"[1]; Day 7, 10 mg/kg bid",295.60 ± 218.67 mm^3
same,Relative tumor proliferation rate T/C,"[1]; Day 7, 20 mg/kg bid",9.61%
same,Tumor volume,"[1]; Day 7, 20 mg/kg bid",184.02 ± 76.71 mm^3
same,Relative tumor proliferation rate T/C,"[1]; Day 9, 2.5 mg/kg bid",34.48%
same,Tumor volume,"[1]; Day 9, 2.5 mg/kg bid",862.41 ± 275.13 mm^3
same,Relative tumor proliferation rate T/C,"[1]; Day 9, 5 mg/kg bid",24.33%
same,Tumor volume,"[1]; Day 9, 5 mg/kg bid",608.56 ± 193.58 mm^3
same,Relative tumor proliferation rate T/C,"[1]; Day 9, 10 mg/kg bid",11.02%
same,Tumor volume,"[1]; Day 9, 10 mg/kg bid",275.49 ± 176.66 mm^3
same,Relative tumor proliferation rate T/C,"[1]; Day 9, 20 mg/kg bid",6.67%
same,Tumor volume,"[1]; Day 9, 20 mg/kg bid",166.80 ± 119.15 mm^3
same,Relative tumor proliferation rate T/C,"[1]; Day 11, 2.5 mg/kg bid",31.05%
same,Tumor volume,"[1]; Day 11, 2.5 mg/kg bid",1079.47 ± 236.62 mm^3
same,Relative tumor proliferation rate T/C,"[1]; Day 11, 5 mg/kg bid",18.40%
same,Tumor volume,"[1]; Day 11, 5 mg/kg bid",639.67 ± 102.59 mm^3
same,Relative tumor proliferation rate T/C,"[1]; Day 11, 10 mg/kg bid",8.91%
same,Tumor volume,"[1]; Day 11, 10 mg/kg bid",309.67 ± 199.23 mm^3
same,Relative tumor proliferation rate T/C,"[1]; Day 11, 20 mg/kg bid",4.89%
same,Tumor volume,"[1]; Day 11, 20 mg/kg bid",169.93 ± 190.60 mm^3
same,TGI (tumor growth inhibition rate),[1]; 2.5 mg/kg bid,68.95%
same,TGI (tumor growth inhibition rate),[1]; 5 mg/kg bid,81.60%
same,TGI (tumor growth inhibition rate),[1]; 10 mg/kg bid,91.09%
same,TGI (tumor growth inhibition rate),[1]; 20 mg/kg bid,95.11%
same,Tumor inhibition rate (by tumor weight),[1]; 2.5 mg/kg bid,68.72%
same,Tumor weight,[1]; 2.5 mg/kg bid,0.54 ± 0.24 g
same,Tumor weight,[1]; 5 mg/kg bid,0.44 ± 0.13 g
same,Tumor inhibition rate (by tumor weight),"[1]; 5 mg/kg bid, 5 mg/kg",74.12%
same,Tumor inhibition rate (by tumor weight),[1]; 10 mg/kg bid,92.90%
same,Tumor weight,[1]; 10 mg/kg bid,0.12 ± 0.11 g
same,Tumor inhibition rate (by tumor weight),[1]; 20 mg/kg bid,95.75%
same,Tumor weight,[1]; 20 mg/kg bid,0.07 ± 0.06 g
same,Rate of change in body weight (%) of day 11 to day 0,[2]; 2.5 mg/kg bid,4.9%
same,Rate of change in body weight (%) of day 11 to day 0,[2]; 5 mg/kg bid,5.0%
same,Rate of change in body weight (%) of day 11 to day 0,[2]; 10 mg/kg bid,4.8%
same,Rate of change in body weight (%) of day 11 to day 0,[2]; 20 mg/kg bid,5.1%
same,Body weight,"[2]; Day 0, 2.5 mg/kg bid",22.9 ± 1.6 g
same,Body weight,"[2]; Day 0, 5 mg/kg bid",23.5 ± 1.6 g
same,Body weight,"[2]; Day 0, 10 mg/kg bid",23.3 ± 0.9 g
same,Body weight,"[2]; Day 0, 20 mg/kg bid",23.2 ± 1.9 g
same,Body weight,"[2]; Day 3, 2.5 mg/kg bid",24.2 ± 2.0 g
same,Body weight,"[2]; Day 3, 5 mg/kg bid",25.5 ± 1.8 g
same,Body weight,"[2]; Day 3, 10 mg/kg bid",24.9 ± 0.7 g
same,Body weight,"[2]; Day 3, 20 mg/kg bid",25.1 ± 2.5 g
same,Body weight,"[2]; Day 5, 2.5 mg/kg bid",24.8 ± 1.8 g
same,Body weight,"[2]; Day 5, 5 mg/kg bid",26.4 ± 1.6 g
same,Body weight,"[2]; Day 5, 10 mg/kg bid",25.8 ± 0.7 g
same,Body weight,"[2]; Day 5, 20 mg/kg bid",26.2 ± 2.8 g
same,Body weight,"[2]; Day 7, 2.5 mg/kg bid",25.4 ± 2.0 g
same,Body weight,"[2]; Day 7, 5 mg/kg bid",27.5 ± 1.7 g
same,Body weight,"[2]; Day 7, 10 mg/kg bid",26.3 ± 1.1 g
same,Body weight,"[2]; Day 7, 20 mg/kg bid",27.2 ± 2.7 g
same,Body weight,"[2]; Day 9, 2.5 mg/kg bid",25.5 ± 1.8 g
same,Body weight,"[2]; Day 9, 5 mg/kg bid",27.5 ± 2.3 g
same,Body weight,"[2]; Day 9, 10 mg/kg bid",26.4 ± 1.1 g
same,Body weight,"[2]; Day 9, 20 mg/kg bid",27.7 ± 2.9 g
same,Body weight,"[2]; Day 11, 2.5 mg/kg bid",25.7 ± 1.9 g
same,Body weight,"[2]; Day 11, 5 mg/kg bid",27.8 ± 2.2 g
same,Body weight,"[2]; Day 11, 10 mg/kg bid",26.4 ± 1.4 g
same,Body weight,"[2]; Day 11, 20 mg/kg bid",27.6 ± 3.5 g
same,General observations: survival,[2]; all animals in all dose groups,survived until the end of administration
same,Tolerance (body weight course),"[2]; all dose groups, 2.5-20 mg/kg bid",good tolerance
same,Rate of change in body weight (%) of day 11 to day 0,[3]; 2.5 mg/kg bid,13.8%
same,Rate of change in body weight (%) of day 11 to day 0,[3]; 5 mg/kg bid,14.3%
same,Rate of change in body weight (%) of day 11 to day 0,[3]; 10 mg/kg bid,15.6%
same,Rate of change in body weight (%) of day 11 to day 0,[3]; 20 mg/kg bid,8.8%
same,Tolerance (body weight course),[3]; 2.5-20 mg/kg bid,good tolerance
same,Body weight,"[3]; Day 0, 2.5 mg/kg bid",23.6 ± 1.7 g
same,Body weight,"[3]; Day 0, 5 mg/kg bid",24.4 ± 1.9 g
same,Body weight,"[3]; Day 0, 10 mg/kg bid",23.6 ± 2.2 g
same,Body weight,"[3]; Day 0, 20 mg/kg bid",24.1 ± 2.3 g
same,Body weight,"[3]; Day 3, 2.5 mg/kg bid",24.6 ± 1.7 g
same,Body weight,"[3]; Day 3, 5 mg/kg bid",25.7 ± 1.9 g
same,Body weight,"[3]; Day 3, 10 mg/kg bid",24.9 ± 2.1 g
same,Body weight,"[3]; Day 3, 20 mg/kg bid",25.9 ± 2.8 g
same,Body weight,"[3]; Day 5, 2.5 mg/kg bid",25.5 ± 1.8 g
same,Body weight,"[3]; Day 5, 5 mg/kg bid",26.5 ± 1.9 g
same,Body weight,"[3]; Day 5, 10 mg/kg bid",26.3 ± 2.2 g
same,Body weight,"[3]; Day 5, 20 mg/kg bid",26.9 ± 2.9 g
same,Body weight,"[3]; Day 7, 2.5 mg/kg bid",26.1 ± 2.1 g
same,Body weight,"[3]; Day 7, 5 mg/kg bid",27.1 ± 1.8 g
same,Body weight,"[3]; Day 7, 10 mg/kg bid",26.7 ± 2.2 g
same,Body weight,"[3]; Day 7, 20 mg/kg bid",26.6 ± 3.2 g
same,Body weight,"[3]; Day 9, 2.5 mg/kg bid",26.5 ± 1.8 g
same,Body weight,"[3]; Day 9, 5 mg/kg bid",27.9 ± 1.9 g
same,Body weight,"[3]; Day 9, 10 mg/kg bid",26.8 ± 2.2 g
same,Body weight,"[3]; Day 9, 20 mg/kg bid",26.4 ± 3.5 g
same,Body weight,"[3]; Day 11, 2.5 mg/kg bid",26.8 ± 2.0 g
same,Body weight,"[3]; Day 11, 5 mg/kg bid",27.9 ± 2.6 g
same,Body weight,"[3]; Day 11, 10 mg/kg bid",27.3 ± 2.2 g
same,Body weight,"[3]; Day 11, 20 mg/kg bid",26.3 ± 3.9 g
